Key:
A375 cells [1] = experiment: Mitochondrial morphology staining (MitoTracker Green FM); format: cell-based; conditions: A375, 25 μM, 24 h
Procedure: For imaging of the mitochondrial morphology in live cells, A375 cells seeded in 96-well optical bottom plates, as above, were treated for 24 h with 25 μM telmisartan, compound 1, 3, or 8. Treatment was washed away, and cells were stained with 500 nM MitoTracker Green FM (#9074, Cell signaling Technology, Danvers, MA, USA) in RPMI without serum for 30 min at 37 °C. Cells were imaged on Zeiss PALM MicroBeam Axio Observer Z1 microscope (Carl Zeiss MicroImaging GmbH, Oberkochen, Germany) with Zeiss LD Plan-Neofluar 20×/0.4 Korr, ∞/0–1.5 mm lens and AxioVision software. Mitochondrial shape was quantified in images from two biological experimental repeats, in three random fields for each condition, using Image J Analyze Particles function. Images were first processed to 8-bit binary, and circularity and aspect ratio (major axis/minor axis) were calculated and plotted with Prism 9 (GraphPad Software, LLC, Boston, MA, USA). Treatments were compared with untreated control using one-way ANOVA and Dunnett’s multiple comparisons test. p < 0.05 was considered statistically significant.

AT1R = target: T1, AT1R (Homo sapiens, UniProt P30556); experiment: Angiotensin II-induced Ca2+ release, Fluo-4 AM live-cell imaging; format: cell-based; conditions: 2 min; for Effect on AngII-induced Ca2+ increase (combination treatment): A375, 25 μM compound + 1 μM AngII; for Effect of compound alone on baseline Ca2+ signaling: A375, compound alone
T1 construct: endogenous in cells; host or cells: A375 melanoma cells (ATCC)
T1 sequence (P30556 1-359): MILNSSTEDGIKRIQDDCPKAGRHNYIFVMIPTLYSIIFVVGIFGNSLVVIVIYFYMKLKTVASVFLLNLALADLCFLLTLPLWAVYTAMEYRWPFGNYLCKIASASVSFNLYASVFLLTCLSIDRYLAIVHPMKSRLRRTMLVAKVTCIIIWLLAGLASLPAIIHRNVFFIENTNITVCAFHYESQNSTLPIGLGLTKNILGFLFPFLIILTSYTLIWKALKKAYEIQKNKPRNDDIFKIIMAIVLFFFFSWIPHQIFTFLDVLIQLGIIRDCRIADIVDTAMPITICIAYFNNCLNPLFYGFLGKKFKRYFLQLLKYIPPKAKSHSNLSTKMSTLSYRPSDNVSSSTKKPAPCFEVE
Procedure: Fluo-4 AM calcium indicator dye (F14201, Molecular Probes, Eugene, OR, USA) was used to observe Ca^2+ dynamics upon treatment, per manufacturer’s instructions. Briefly, 5000 A375 cells/well were seeded in 96-well optical bottom black cell culture plates (165305, Thermo Scientific). Fluo-4 AM stock solution in DMSO was mixed with equal volume of 20% Pluronic F-127 to assist in dispersion of AM esters before dilution into the loading medium. Twenty-four hours after seeding medium was removed, and cells were washed with HBBS without calcium and magnesium. Cells were stained in HBSS medium with 1.25 μM Fluo-4-AM for 30 min at 37 °C. After incubation, cells were washed and incubated in complete medium (10%FBS RPMI) to allow de-esterification for 30 min and then treated with 1 μM human Angiotensin II (A9525, Sigma Aldrich), 50 μM telmisartan, compounds 1, 3, and 8, or the combinations. Images were taken before addition of the treatment (0 min) and after 2 min of treatment on Zeiss PALM MicroBeam Axio Observer Z1 microscope (Carl Zeiss MicroImaging GmbH, Oberkochen, Germany) with Zeiss LD Plan-Neofluar 20×/0.4 Korr, ∞/0–1.5 mm lens and AxioVision SE64 Rel.4.9.1 software. Experiment was repeated three times. Integrated density of Fluo-4 fluorescence at 2 min of exposure to treatment was calculated with Image J, and normalized to the baseline fluorescence at time 0, in at least two random fields for each condition. Conditions were compared with one-way ANOVA and Tukey’s multiple comparisons test. p < 0.05 was considered statistically significant.

A375 cells [2] = experiment: Cellular uptake and subcellular distribution by LC-MS/MS; format: cell-based; conditions: A375, 25 μM, 24 h; for Compound accumulation normalized to telmisartan, Chromatin Bound: chromatin-bound nuclear fraction; for Compound accumulation normalized to telmisartan, Cytoplasm: cytoplasmic fraction; for Compound accumulation normalized to telmisartan, Cytoskeleton: cytoskeletal fraction; for Compound cell accumulation normalized to telmisartan, Whole Lysate: μmol compound per μg cell protein normalized to telmisartan
Procedure: Cells were then trypsinized, washed with PBS and pelleted. For whole cell lysates, cell pellet was dissolved in RIPA buffer on ice. Fractions and whole cell lysates were stored at -80 °C until use. Protein concentration of lysates was determined with Pierce BCA Protein assay kit (Thermo Fisher #23225), and cell accumulation was calculated as μmol of compound per μg of cell protein and normalized to telmisartan. Concentrations of telmisartan and its derivatives were determined using liquid chromatography-tandem mass spectrometry (LC-MS/MS) method in positive HESI mode. The analysis was performed on UHPLC chromatograph […] (Thermo Fisher Scientific Inc., Madison, WI, USA), coupled to a triple quadrupole mass spectrometer TSQ Quantum Access MAX (Thermo Fisher Scientific Inc., Madison, WI, USA) with heated electrospray ionization (HESI) interface. The column was Zorbax Extend C18 (150 mm × 4.6 mm, 5 μm particle size). […] Experiment was repeated twice.

[3] = tested on: HaCaT (human keratinocytes); experiment: MTT cell viability assay, HaCaT; format: cell-based; conditions: 72 h
Procedure: (§1) A375, MRC-5, and HaCaT cell lines were obtained from the American Type Culture Collection (ATCC). 518A2 cell line was kindly provided by Dr. […]ć. All cell lines were cultured in RPMI 1640 medium supplemented with 2 g/L glucose, 10% fetal bovine serum (FBS), and antibiotics. […] Cell viability was assessed using the MTT assay (Sigma Aldrich, #M5655). […] After 72 h of incubation, absorbance was measured at 570 nm using a Multiskan SkyHigh microplate reader (Thermo Fisher Scientific, Helsinki, Finland). Values were corrected by subtracting the absorbance measured in wells containing cell-free medium with tested compounds.

A375R cells = experiment: MTT cell viability assay, vemurafenib-resistant A375R; format: cell-based; conditions: for IC50: A375R, MTT, 72 h
Procedure: as §1

[4] = Stability in biological media (HPLC); format: physicochemical; conditions: room temperature
Procedure: To test stability in biological media, three best drug candidates (compounds 1, 3, and 8) were dissolved in 0.05 M hydrochloric acid, pH 2.0, and phosphate buffer, pH 5.5 (prepared by dissolving sodium dihydrogen phosphate dihydrate and disodium hydrogen phosphate in distilled water, followed by the adjustment of pH by ortho-phosphoric acid) and RPMI 1640 medium. Stock solutions in DMSO (2 mg/mL) were diluted by corresponding medium to obtain working solutions (0.02 mg/mL) and incubated at room temperature in 0.05 M hydrochloric acid (2 h), phosphate buffer pH 5.5 (5 h), and RPMI 1640 medium (72 h). Compounds were injected freshly prepared, and after incubation time, the differences in concentrations was expressed as percentages. Quantification was performed on Dionex Ultimate 3000 HPLC system (Thermo Fisher Scientific, Dreieich, Germany), consisting of Dionex Ultimate 3000 quaternary pump, autosampler, and DAD detector. The column was Zorbax Extend C18 (150 mm × 4.6 mm, 5 µm particle size). The mobile phase was 0.1% formic acid/acetonitrile = 50/50 (compound 1) and 60/40 (compounds 3 and 8). The column temperature was adjusted to 25 °C, and the flow rate was 0.5 mL/min. The detection was performed at 300 nm.

Structure (SMILES)	Mitochondrial network morphology (A375 cells [1])	Effect on AngII-induced Ca2+ increase (combination treatment) (AT1R)	Effect of compound alone on baseline Ca2+ signaling (AT1R)	Compound accumulation normalized to telmisartan, Chromatin Bound (A375 cells [2])	Compound accumulation normalized to telmisartan, Cytoplasm (A375 cells [2])	Compound accumulation normalized to telmisartan, Cytoskeleton (A375 cells [2])	Compound accumulation normalized to telmisartan, Membrane (A375 cells [2]; membrane fraction)	Compound cell accumulation normalized to telmisartan, Whole Lysate (A375 cells [2])	IC50 [3]	IC50 (A375R cells)	Change in concentration after incubation in phosphate buffer pH 5.5 ([4]; phosphate buffer pH 5.5, 5 h)	Accumulation in the membrane fraction (A375 cells [2]; membrane fraction)	Selectivity (A375R cells; A375R versus normal cell lines (HaCaT, MRC-5), from IC50 values)	Change in concentration after incubation in 0.05 M hydrochloric acid ([4]; 0.05 M HCl, pH 2.0, 2 h)	Change in concentration after incubation in RPMI 1640 medium ([4]; RPMI 1640 medium, 72 h)
CCCc1nc2c(C)cc(-c3nc4ccccc4n3C)cc2n1Cc1ccc(-c2ccccc2C(=O)NC(Cc2ccc(O)cc2)C(=O)O)cc1 (stereo not drawn) [compound 3, 2-{[4′-(1,7′-dimethyl-2′-propyl-1H-[2,5′]bibenzoimidazolyl-3′-ylmethyl)-biphenyl-2-carbonyl]-amino}-3-(4-hydroxy-phenyl)-propionic acid]	disrupted the mitochondrial network to a greater extent than telmisartan	did not prevent AngII-induced Ca^2+ increase	no significant changes in the baseline Ca^2+ signaling	0.52	3.64	0.69	4.62	4.57	63.46 ± 0.23 µM	21.1 ± 6.31 µM	3.49%				
CCCc1nc2c(C)cc(-c3nc4ccccc4n3C)cc2n1Cc1ccc(-c2ccccc2C(=O)NC(Cc2ccccc2)C(=O)O)cc1 (stereo not drawn) [compound 8, 2-{[4′-(1,7′-dimethyl-2′-propyl-1H-[2,5′]bibenzoimidazolyl-3′-ylmethyl)-biphenyl-2-carbonyl]-amino}-3-phenyl-propionic acid]	dramatic fission and clumping of mitochondria	did not prevent AngII-induced Ca^2+ increase	no significant changes in the baseline Ca^2+ signaling	11.90	11.17	7.44		4.41	70.8 ± 6.99 µM	8.84 ± 1.24 µM		26.814 µmol/L	> 3.50	3.04%	2.00%
